The test system of series [1] is acute bowels inflammation caused by diverticulitis. As to the kind of experiment: Healing from acute inflammatory bowels disease (diverticulitis) in S4, Example 1e. Type of series: in vivo, human. From the text: In Example 1e the resolution of gastrointestinal tract infection in another subject 4 (S4) has been shown. Like in S1 also in S4 the HO-1 pathway is clearly activated by the DGA Activation. This is indirectly shown by the clear reduction of blood bilirubin in Table 1e. […] During last few years these seldom but acute inflammations in the gastrointestinal tract have been mostly in the colon and caused by inflammation in Colonic diverticula. […] The only functioning therapy for inflammatory bowels disease has been the administration of strong intravenous antibiotics.
Like other tests with unhealthy humans also this test was done because there were no other efficient substances available. When symptoms of increased bowels inflammation/diverticulosis started S4 was on holiday abroad with very difficult access to any specialized doctor not to mention any hospital. […] Simultaneously with inflammatory symptoms and maybe partially enhancing them S4 experienced constipation.
By Saturday night on the 4th day of gradually increasing acute inflammation in the colon, S4 decided to test whether DGA Activation in combination with paracetamol would assist in resolving this already rather serious inflammation. There were no other available options at that moment. This decision was also supported by confidential information received on positive results with S1 (Examples 1b and 1c).
Saturday night at 0737 pm first 260 mg of D-glyceric acid calcium salt mixed into water was taken with 2×500 mg of paracetamol. Another additional 260 mg dose of DGAcs mixed into water was taken the same night at 1020 pm. Altogether the starting dose was 9 mg/kg i.e. relatively high. High initial dose was chosen because of high level of inflammation.

A further series deals with intraocular pressure. Nature of the series: Intraocular pressure (IOP) in glaucoma, S1. Type of series: in vivo, human. From the text:
FIG. 12: Numerical values of the reduction in IOP in Glaucoma after DGA Administration.
The same seems to be true for the efficacy of glaucoma therapy in FIG. 12.

The test system of another series is HO-1, CYP2B6, PGC-1a. As to the kind of experiment: Gene expression in primary human hepatocytes after 48 h+2 h. Type of series: cell-based. As for the experimental part: FIG. 13b: Gene Expression results from Primary Hepatocytes after 48 h+2 h of the DGA Activation vs. 0-control. […] Combined test for PGC-1a yielded P-value of some 10%. Primary human hepatocytes were purchased from Celsis In Vitro Technologies (1450 South Rolling Road Baltimore, Md. 21227, USA). Primary hepatocytes were received from three different post mortem human donators. […] This is also the case for DOO.
In this experimental model the cells in the 0-Control and in the two DGA Activation groups were normally and identically incubated before DGA Activation. Incubation the medium is changed every 24 hours. When the 48 hour+2 hour DGA Activation started, the only difference was the addition of either 1.4 μM or 14 μM of DGA to the used medium. The D-glyceric acid calcium salt was carefully mixed in to medium before the administration. Thus, it was separated from the calcium salt.

The test system of series [2] is rat primary optic nerve astrocytes. As to the kind of experiment: Cell viability (MTT and LDH assays) of rat primary optic nerve astrocytes. Type of series: cell-based. How it is done: For proving the efficacy of DGA Activation in reducing ROS in infectious disorders an in vitro study using rat primary optic nerve astrocytes has been conducted. […] As an important part of the study the cell viability was estimated 6 hours after tBHP administration by two methods, i.e. LDH and MTT assays. Cell viability was measured using the in-house MTT assay (of Experimentica Ltd., Finland) and CytoTox96 non-radioactive cytotoxicity assay (G1780, Promega) in response to oxidative stress primary optic nerve astrocytes. The production of reactive oxygen species (ROS) was measured using CellROX Green (Invitrogen) and isolate RNA in RNALater solution (Ambion). Prior study preparations to find suitable tBHP concentration: The astrocytes where seeded at 5000 cells per well and allowed to grow for 48 hrs to mimic the study. On day 2 the medium was removed and the cells were exposed to a dose response range of tBHP in fresh medium for 6 hrs. The MTT and LDH assay were performed to assess cell survival using the Victor microplate reader. The raw data was given to patent applicant for assessment. […] After 24 hrs the compounds were removed, and readded with new medium for 1 hr, prior to the administration of 85 μM tBHP (FIG. 3c). […]

In the next series the test system is metabolism of alcohol. Particulars: administered with ethanol to rats; cited from earlier work.
Where [3] appears, read: 1.4 μM, combined data, P-value approximately 1%.

Take `O=C(O)[C@H](O)CO` [DGA, D-glyceric acid]: the “time needed to turn the inflammatory process clearly down” value in series [1] (S4) was approximately 36 h. The defecation entry in series [1] (S4, Sunday 0910 am, morning after 2×260 mg DGAcs with 2×500 mg paracetamol) is listed as “could defecate (almost normally) for the first time in 3 days”. In addition, the pains in bowels result in series [1] (S4, Wednesday morning, after 240 mg twice a day) is given as “All the pains in bowels had disappeared”. Moreover, the “IOP reduction, sufficiency of acute dose” value in the series on intraocular pressure (acute dose 1*200 mg) is reported as “not necessarily sufficient”. In the series with intraocular pressure (first measurement under the full DGA Activation), the “IOP compared to relevant control measurement” value was “very significant reduction in IOP”. In the series with HO-1, CYP2B6, PGC-1a (setting [3]), the “CYP2B6 expression vs control” value is “statistically significantly different from control” and the “HO-1 expression vs control” value is reported as “statistically significantly different from control”. Also, the “PGC-1a expression vs control” value in the series with HO-1, CYP2B6, PGC-1a (combined test P-value of some 10%) is “activated compared to control”. Further, the “increase of HO-1 expression” value with HO-1, CYP2B6, PGC-1a (primary human hepatocytes in vitro) is on record as 50-80%. Moreover, the “cell viability after tBHP administration” value in series [2] (85 μM tBHP, 6 hrs) is listed as “clearly higher”. In series [2] (in health (0 μM tBHP) and in disease state (85 μM tBHP)), the “cell viability compared to 0-controls” value is listed as “increases in both”. In addition, the metabolism of alcohol entry with metabolism of alcohol is on record as “expedited the metabolism of alcohol”.

The values above are taken from US20190008810A1, “METHOD FOR PREVENTION, TREATMENT AND ALLEVIATION OF INFECTIOUS DISEASES AND DISORDERS” (REPLICON HEALTH OY, priority 2016, published 2019).
